Laboratory results: patent US20060165731A1, “Vaccines” (British Technology Group Ltd., priority 1986, published 2006)

Assays:
Assay type in all cases: in vivo, Eimeria (in Cobb broiler chickens)
[1] = system: seven homologous or seven heterologous strains of each of the seven species of Eimeria; assay: Vaccine trial in Cobb broiler chickens, overall (homologous and heterologous challenge)
Excerpt: (§1) The vaccine of Example 3 was used in a trial conducted on 4,480 Cobb broiler chickens kept in floor pens. The concentration of xanthan gum in the vaccine was adjusted so that administration of 140 doses of vaccine to each drinking vessel provided a final xanthan gum concentration of 0.03%. The trial was designed to compare the performance of birds vaccinated with live attenuated coccidiosis vaccine of the invention and birds fed the coccidiostat, monensin, in the face of a challenge with seven homologous or seven heterologous strains of each of the seven species of Eimeria. The heterologous strains were chosen on the basis that they were either thought to be more pathogenic than the homologous ones or antigenically distinct.
(§2) Birds were penned in groups of 140. Four pens were allocated to each treatment and two pens were allocated to each control group. […] The allocation of pens to treatment was randomised throughout the broiler house. The design of the trial was as follows:
The vaccine was administered via the drinking water. The birds were fed a ration based on a commercial formulation which included the antibiotic growth promoter avoparcin at 10 ppm. […]
Liveweights and cumulative feed intakes were measured on days 30, 37 and 49. Feed conversion ratios were calculated by dividing the feed intake by the gain in liveweight from day 1. […] Mean lesion scores were calculated.

[2] = system: seven homologous strains of each of the seven species of Eimeria; assay: Vaccine trial in Cobb broiler chickens, homologous challenge
Excerpt: as §1, §2
(§3) The vaccine was administered via the drinking water. The birds were fed a ration based on a commercial formulation which included the antibiotic growth promoter avoparcin at 10 ppm. The anticoccidial drugs were administered in the feed.
(§4) It should be noted that, in order to prevent infection by wild Eimeria strains, and consequent development of immunity, the two control groups were fed robenidine (30 ppm) for 28 days. One group received a heterologous challenge and the other received a homologous challenge.
(§5) All birds received an individual oral challenge administered by inoculation into the crop on day 31. The numbers of oocysts of each species in the challenge doses were as follows:—
(§6) Liveweights and cumulative feed intakes were measured on days 30, 37 and 49. Feed conversion ratios were calculated by dividing the feed intake by the gain in liveweight from day 1. Counts of oocysts in the litter were made for each pen at weekly intervals. On day 37, a sample of 5 birds from each pen (total 160) was culled and coccidiosis lesion scores were estimated. Scores were made on a scale of 0 to 3.5 in ascending severity of the lesions symptomatic of infection with E. acervulina, E. brunetti, E. maxima/necatrix (grouped together because they are difficult to distinguish) and E. tenella. Mean lesion scores were calculated.

[3] = system: seven heterologous strains of each of the seven species of Eimeria; assay: Vaccine trial in Cobb broiler chickens, heterologous challenge
Excerpt: as §1, §2, §3, §4, §5, §6

Compound: CC[C@@]1([C@@H]2O[C@@H]([C@H]3O[C@@](O)(CO)[C@H](C)C[C@@H]3C)C[C@@H]2C)CC[C@H]([C@]2(C)CC[C@]3(C[C@H](O)[C@@H](C)[C@@H]([C@@H](C)[C@@H](OC)[C@H](C)C(=O)O)O3)O2)O1 [Monensin, monensin]
- Lesion scores after either homologous or heterologous challenge ([1]; compared with controls): lower lesion scores
- Protecting against coccidial challenge (performance of the birds, overall) ([1]; vaccine compared with monensin): equally effective
- Mean Lesion Score E. acervulina ([2]; Homologous challenge, day 37, scale of 0 to 3.5, control 0.2): 0
- Mean Lesion Score E. brunetti ([2]; Homologous challenge, day 37, scale of 0 to 3.5, control 0.40): 0.03
- Mean Lesion Score E. maxima/necatrix ([2]; Homologous challenge, day 37, scale of 0 to 3.5, control 1.25): 0.13
- Mean Lesion Score E. tenella ([2]; Homologous challenge, day 37, scale of 0 to 3.5, control 2.25): 0.20
- LIVEWEIGHTS ([2]; day 49, Homologous Challenge on day 31, control 2225): 2489 g/bird
- Mean Lesion Score E. acervulina ([3]; Heterologous challenge, day 37, scale of 0 to 3.5, control 0.30): 0.10
- Mean Lesion Score E. brunetti ([3]; Heterologous challenge, day 37, scale of 0 to 3.5, control 0.70): 0
- Mean Lesion Score E. maxima/necatrix ([3]; Heterologous challenge, day 37, scale of 0 to 3.5, control 2.00): 0.95
- Mean Lesion Score E. tenella ([3]; Heterologous challenge, day 37, scale of 0 to 3.5, control 2.65): 1.53
- Counts of oocysts in the litter, pens of monensin treated birds relative to pens of vaccinated birds ([3]; after challenge with heterologous strains, on average, very high pen to pen variation): two or three times higher
- LIVEWEIGHTS ([3]; day 49, Heterologous Challenge on day 31, control 2197): 2407 g/bird
- Lesion scores for heterologous E. maxima/necatrix ([3]; in each case lower than the controls): Slightly elevated scores
